Values of other authors in publication PMC4433633, “A Heparan Sulfate-Binding Cell Penetrating Peptide for Tumor Targeting and Migration Inhibition” (BioMed Research International, 2015).

Conditions: ref [56]
Text: Although CPPs as noninvasive agents have promising biomedical potential for molecular delivery, they are mostly unfeasible for in vivo researches due to nonspecificity of their highly cationic characteristic such as TAT peptide. Due to high uptake rates in vitro and relatively low specificity in vivo of most CPPs, conventional CPPs would be designed for topical applications in CPP-based delivery (Table 1). […] Although TAT peptide (46–57) de ...

SYGRKKRRQRRR [TAT peptide (46–57), multifunctional CPP […]]
target specificity in vivo: low target specificity in vivo
